The text below walks through data of paper PMC4578755, “Development of novel cellular histone-binding and chromatin-displacement assays for bromodomain drug discovery” (Epigenetics & Chromatin, 2015).

SMILES strings stand for the structures.

In assay [1] the target is T1, TRIM24-PB/histone H3 co-localization in HeLa TRIM24-PB cells (Homo sapiens, UniProt O15164).
T1 construct: The FLAG-TRIM24-PB construct (residues 810–1050) was generated by PCR amplification; expressed in transfected cells
T1 sequence (O15164 810-1050): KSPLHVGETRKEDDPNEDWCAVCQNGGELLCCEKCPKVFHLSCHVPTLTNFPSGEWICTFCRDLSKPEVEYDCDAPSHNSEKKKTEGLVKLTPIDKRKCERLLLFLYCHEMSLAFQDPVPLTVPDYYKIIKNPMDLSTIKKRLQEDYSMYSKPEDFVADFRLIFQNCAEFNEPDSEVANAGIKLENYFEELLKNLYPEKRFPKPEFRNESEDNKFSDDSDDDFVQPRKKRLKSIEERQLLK
The experiment in a line: Proximity ligation assay (PLA) TRIM24/histone H3. It is filed as cell-based. The settings on record: SAHA treatment; Alexa-conjugated secondary antibodies. The protocol: Hela cells expressing FLAG-TRIM24-PHD-Bromo-V5 (TRIM24-PB) (20 K/100 µL) were seeded into 96-well plates (Corning Costar #CLS3603) in DMEM media supplemented with 10 % FBS and grown overnight. After treatment with SAHA (5 µM, 2 h), plates were washed with PBS (150ul per well) and fixed with 4 % paraformaldehyde (10 min at RT). PLA was performed using Duolink® In situ Red Starter Kit Mouse/Goat (Sigma-Aldrich, DUO92103), according to manufacturer’s recommendation. Primary antibody pair was: Goat anti-V5 (1:200 dilution; Bethyl #A190-119A) and Mouse anti-histone H3 (1:4000 dilution; Active Motif, #39763). Following PLA, secondary antibody Alexa Fluor®594 Donkey Anti-Goat (Invitrogen #A-11056) and Alexa Fluor®488 Donkey Anti-Mouse (Invitrogen #A-21202) were used to measure the total levels of V5 and histone H3. Using the High-Content Screening System Operetta with 40× magnification, cell images from 25 fields in each well were taken in 4 channels (Alexa488, Alexa594, Alexa647 and Hoechst). […] For each gated cell, we calculated the mean signal intensity for histone H3 (Alexa488 in the nucleus minus Alexa488 in the cytoplasm); TRIM24 (Alexa594 in the nucleus minus the […] intensity in the cytoplasm); and the mean number for the PLA signal (number of spots in nucleus). […]

Assay [2] addresses T2, TRIM24-PB binding to endogenous histone H3 in HeLa TRIM24-PB cells (Homo sapiens, UniProt O15164).
T2 construct: The FLAG-TRIM24-PB construct (residues 810–1050) was generated by PCR amplification; expressed in transfected cells
T2 sequence (O15164 810-1050): T1 sequence (O15164 810-1050)
The experiment in a line: Cellular TRIM24/histone H3 AlphaLISA binding assay. It is filed as cell-based. The settings on record: co-treated with SAHA, 2 h, 6 independent experiments, listed as TRIM24 inhibitor, read-out: Cell EC50 (AlphaLISA). On the procedure:
Hela TRIM24-PB cells were maintained in DMEM medium supplemented with 10 % FBS and 5 µg/mL of Blasticidin. Cells were seeded (10,000/well, 40 µL) to 384-well white culture plates (PerkinElmer, #6007680) using a Multidrop 384 reagent dispenser (Thermo Scientific) and incubated overnight at 37 °C and 5 % CO2. On Day 2, the cells were co-treated with SAHA (10 µM) and test compound and incubated at 37 °C and 5 % CO2 for 2 h. The plates were washed twice with PBS (60 µL at RT) using a Biomek FX liquid handler (Beckman Coulter). […] Plates were read on Envision plate reader (PerkinElmer) using AlphaScreen protocol and all IC50 values (four-parameter logistic curve) were obtained using GraphPad Prism 6 software. […]
All EC50 values were calculated based on these POC values using four-parametric nonlinear regression (i.e., curve fitting) software (either Genedata Screener™ software version 11 or Graphpad Prism 6). For the cell-based AlphaLISA assay, the POC values were calculated using the following wells and process: (1) a “blank subtraction” was performed by subtracting the mean signal of the blank control wells (which contained media but lacked cells) from all of the measured values; (2) these corrected values were then used in the POC formula stated above. […] Average and standard Deviation (SD) values were calculated using the Harmony software (PerkinElmer). […]
On the technique in general: Alpha assays give light when donor and acceptor beads are brought close together.

Take `O=C(CCCCCCC(=O)Nc1ccccc1)NO` [SAHA, Suberoylanilide Hydroxamic Acid]: the “Mean nuclei levels of TRIM24” value in assay [1] is “did not change”. Turning to `Cc1nc(S(=O)(=O)Nc2cc3c(cc2Oc2cccc(OCC(C)C)c2)n(C)c(=O)n3C)cn1C` [IACS-6558, N-{1,3-dimethyl-6-[3-(2-methylpropoxy)phenoxy]-2-oxo-2,3-dihydro-1H-1,3-benzodiazol-5-yl}-1,2-dimethyl-1H-imidazole-4-sulfonamide], the EC50 in assay [2] is 1300 nM.

A word on the EC50: it is the concentration at which the effect is half-maximal.
